Laboratory results as given in ChEMBL document CHEMBL1201862, “PubChem BioAssay data set” (2004).
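1) Cells in 96-well plates. 2) Compound, 48 h, 5 concentrations. 3) Linear interpolation between surrounding doses. 4) Unreached endpoint = highest concentration. At the GI50, growth is halved.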 Calls of active or inactive are those of the source. Rule as the data show it: active = GI50 up to about 1.1 µM and inactive = higher.

Legend:
Experiment in all cases: NCI anticancer screen, dose series, 48 h
CAKI-1 = system: CAKI-1
CCRF-CEM = system: CCRF-CEM
HCC 2998 = system: HCC 2998
HCT-15 = system: HCT-15
HL-60 = system: HL-60
HOP-62 = system: HOP-62
HT-29 = system: HT-29
LXFL 529 = system: LXFL 529
Malme-3M = system: Malme-3M
NCI-H23 = system: NCI-H23
OVCAR-4 = system: OVCAR-4
OVCAR-5 = system: OVCAR-5
OVCAR-8 = system: OVCAR-8
SF-539 = system: SF-539
SN12C = system: SN12C
SR = system: SR
SW-620 = system: SW-620
UACC-62 = system: UACC-62
KM-20L2 = system: KM-20L2

## CC(=O)/C(=C\C1=CCCO1)C(=O)Nc1ccccc1C
CAKI-1
  GI50: > 100 µM (inactive)
CCRF-CEM
  GI50: > 100 µM (inactive)
HCC 2998
  GI50: > 100 µM (inactive)
HCT-15
  GI50: > 100 µM
HL-60
  GI50: > 100 µM (inactive)
HOP-62
  GI50: > 100 µM (inactive)
HT-29
  GI50: > 100 µM (inactive)
LXFL 529
  GI50: > 100 µM (inactive)
Malme-3M
  GI50: > 100 µM (inactive)
NCI-H23
  GI50: > 100 µM (inactive)
OVCAR-4
  GI50: > 100 µM (inactive)
OVCAR-5
  GI50: > 100 µM (inactive)
OVCAR-8
  GI50: > 100 µM (inactive)
SF-539
  GI50: > 100 µM (inactive)
SN12C
  GI50: > 100 µM (inactive)
SR
  GI50: > 100 µM (inactive)
SW-620
  GI50: > 100 µM (inactive)
UACC-62
  GI50: > 100 µM (inactive)

## CCOC(=O)C(=O)Nc1c(C(C)C)cccc1C(C)C
CAKI-1
  GI50: > 100 µM (inactive)
CCRF-CEM
  GI50: > 100 µM (inactive)
HCC 2998
  GI50: > 100 µM (inactive)
HCT-15
  GI50: > 100 µM
HL-60
  GI50: > 100 µM (inactive)
HOP-62
  GI50: > 100 µM (inactive)
HT-29
  GI50: > 100 µM (inactive)
KM-20L2
  GI50: > 100 µM (inactive)
LXFL 529
  GI50: > 100 µM (inactive)
Malme-3M
  GI50: > 100 µM (inactive)
NCI-H23
  GI50: > 100 µM (inactive)
OVCAR-4
  GI50: > 100 µM (inactive)
OVCAR-8
  GI50: > 100 µM (inactive)
SF-539
  GI50: > 100 µM (inactive)
SN12C
  GI50: > 100 µM (inactive)
SR
  GI50: > 100 µM (inactive)
SW-620
  GI50: > 100 µM (inactive)
UACC-62
  GI50: > 100 µM (inactive)

## CC1=N/C(=C\c2cccc([N+](=O)[O-])c2)C(=O)O1
CCRF-CEM
  GI50: > 100 µM (inactive)
HCC 2998
  GI50: > 100 µM (inactive)
HCT-15
  GI50: > 100 µM
HL-60
  GI50: > 100 µM (inactive)
HOP-62
  GI50: > 100 µM (inactive)
HT-29
  GI50: > 100 µM (inactive)
KM-20L2
  GI50: > 100 µM (inactive)
LXFL 529
  GI50: > 100 µM (inactive)
Malme-3M
  GI50: > 100 µM (inactive)
NCI-H23
  GI50: > 100 µM (inactive)
OVCAR-5
  GI50: > 100 µM (inactive)
OVCAR-8
  GI50: > 100 µM (inactive)
SF-539
  GI50: > 100 µM (inactive)
SN12C
  GI50: > 100 µM (inactive)
SW-620
  GI50: > 100 µM (inactive)
UACC-62
  GI50: > 100 µM (inactive)

## [O-][S+]1c2ccccc2N=C(c2ccc3ccccc3c2)CC1c1ccccc1F (stereo unspecified)
CAKI-1
  GI50: > 100 µM (inactive)
CCRF-CEM
  GI50: 67.8 µM (inactive)
HCC 2998
  GI50: > 100 µM (inactive)
HCT-15
  GI50: > 100 µM
HL-60
  GI50: > 100 µM (inactive)
HOP-62
  GI50: > 100 µM (inactive)
HT-29
  GI50: > 100 µM (inactive)
KM-20L2
  GI50: > 100 µM (inactive)
LXFL 529
  GI50: > 100 µM (inactive)
Malme-3M
  GI50: > 100 µM (inactive)
NCI-H23
  GI50: > 100 µM (inactive)
OVCAR-4
  GI50: > 100 µM (inactive)
OVCAR-5
  GI50: > 100 µM (inactive)
OVCAR-8
  GI50: > 100 µM (inactive)
SF-539
  GI50: > 100 µM (inactive)
SN12C
  GI50: > 100 µM (inactive)
SW-620
  GI50: > 100 µM (inactive)
UACC-62
  GI50: > 100 µM (inactive)

## CC(C)c1cccc(C(C)C)c1NC1=CC(=O)C(=O)c2ccccc21
CAKI-1
  GI50: > 100 µM (inactive)
CCRF-CEM
  GI50: > 100 µM (inactive)
HCC 2998
  GI50: > 100 µM (inactive)
HCT-15
  GI50: > 100 µM
HL-60
  GI50: 77.8 µM (inactive)
HOP-62
  GI50: > 100 µM (inactive)
HT-29
  GI50: > 100 µM (inactive)
KM-20L2
  GI50: > 100 µM (inactive)
LXFL 529
  GI50: > 100 µM (inactive)
Malme-3M
  GI50: > 100 µM (inactive)
NCI-H23
  GI50: 72.9 µM (inactive)
OVCAR-5
  GI50: > 100 µM (inactive)
OVCAR-8
  GI50: > 100 µM (inactive)
SF-539
  GI50: > 100 µM (inactive)
SN12C
  GI50: > 100 µM (inactive)
SR
  GI50: 35.5 µM (inactive)
SW-620
  GI50: > 100 µM (inactive)
UACC-62
  GI50: > 100 µM (inactive)

## COc1ccc(CCn2c(=O)c3ccccc3n(C)c2=O)cc1
CAKI-1
  GI50: 38.5 µM (inactive)
CCRF-CEM
  GI50: 23.7 µM (inactive)
HCC 2998
  GI50: 21 µM (inactive)
HOP-62
  GI50: 26.4 µM (inactive)
HT-29
  GI50: 23.3 µM (inactive)
KM-20L2
  GI50: 63.4 µM (inactive)
LXFL 529
  GI50: 26.1 µM (inactive)
Malme-3M
  GI50: 48 µM (inactive)
NCI-H23
  GI50: 48.6 µM (inactive)
OVCAR-4
  GI50: > 100 µM (inactive)
OVCAR-5
  GI50: > 100 µM (inactive)
OVCAR-8
  GI50: 58.6 µM (inactive)
SF-539
  GI50: 41.6 µM (inactive)
SN12C
  GI50: 80.7 µM (inactive)
SW-620
  GI50: 15.9 µM (inactive)
UACC-62
  GI50: 24.2 µM (inactive)

## Cc1cc(C)nc(Sc2c([N+](=O)[O-])ncn2C)n1
CAKI-1
  GI50: > 100 µM (inactive)
CCRF-CEM
  GI50: 56.9 µM (inactive)
HCC 2998
  GI50: > 100 µM (inactive)
HOP-62
  GI50: > 100 µM (inactive)
HT-29
  GI50: > 100 µM (inactive)
LXFL 529
  GI50: 99.8 µM (inactive)
Malme-3M
  GI50: 94.6 µM (inactive)
NCI-H23
  GI50: > 100 µM (inactive)
OVCAR-4
  GI50: > 100 µM (inactive)
OVCAR-5
  GI50: > 100 µM (inactive)
OVCAR-8
  GI50: > 100 µM (inactive)
SF-539
  GI50: > 100 µM (inactive)
SN12C
  GI50: > 100 µM (inactive)
SR
  GI50: > 100 µM (inactive)
SW-620
  GI50: > 100 µM (inactive)
UACC-62
  GI50: > 100 µM (inactive)

## Cc1c2n(c3ccccc13)CC1C2N(C)OC1(C)C (stereo unspecified)
CAKI-1
  GI50: > 100 µM (inactive)
CCRF-CEM
  GI50: > 100 µM (inactive)
HCC 2998
  GI50: > 100 µM (inactive)
HCT-15
  GI50: > 100 µM
HOP-62
  GI50: 83.8 µM (inactive)
HT-29
  GI50: > 100 µM (inactive)
KM-20L2
  GI50: > 100 µM (inactive)
Malme-3M
  GI50: > 100 µM (inactive)
NCI-H23
  GI50: > 100 µM (inactive)
OVCAR-4
  GI50: > 100 µM (inactive)
OVCAR-5
  GI50: > 100 µM (inactive)
OVCAR-8
  GI50: > 100 µM (inactive)
SF-539
  GI50: > 100 µM (inactive)
SN12C
  GI50: > 100 µM (inactive)
SR
  GI50: > 100 µM (inactive)
UACC-62
  GI50: > 100 µM (inactive)
